Experimental data reported in US20250296939A1, “BENZOTHIOPHENE COMPOUND” (Kyoto Pharmaceutical Industries, Ltd., priority 2022, published 2025).
Each block holds one compound with its values, some of them ahead of it.

Tests used:
[1] = target: GST-fused human Keap1 (amino acid residues: 325-642) protein (Homo sapiens (Human), UniProt Q14145); assay: FP assay (in vitro): inhibition of binding between Nrf2 and Keap1 by fluorescence polarization; settings: 20 nM GST-fused human Keap1, 10 nM FITC-labeled Nrf2 peptide, 2 hr at room temperature
Protocol: Experimental Example 1: FP Assay (In Vitro)
The inhibitory activity of test compounds on the binding between Nrf2 and Keap1 was determined by fluorescence polarization. A solution of 50 mM Tris-HCl pH.8.0 (NACALAI, REF: 06938-15), and 5 mM DTT (SIGMA-ALDRICH, REF: 646563-10X.5 mL) was used as a buffer solution. 8 μL of a buffer solution containing 40 nM GST-fused human Keap1 (amino acid residues: 325-642) protein (Protein tech, REF: Ag0779) was taken in a black 384-well plate (final concentration 20 nM), and 4 μL of the test compound solution prepared to each concentration in buffer solution was added thereto. A well containing a portion of the buffer solution without Keap1 was placed as a negative control. A well with no compound was used as a positive control. 40 nM of FITC-labeled Nrf2 peptide (FITC-X-LQLDEETGEFLPIQ (X=ε-Acp), Peptide Institute Inc.) was added thereto (10 nM final concentration). The wells were incubated at room temperature for 2 hr, and then fluorescence polarization was measured with a plate reader SPECTRAMAX Paradigm (Molecular devices) at excitation wavelength of 485 nm and fluorescence wavelength of 535 nm. The fluorescence polarization of the negative control was set to 100% inhibition and that of the positive control to 0% inhibition, and the inhibitory rate upon addition of the test compound was calculated using the following formula.

[2] = test system: NQO1 activity in Hepa1c1c7 cells; assay: NAD(P)H: quinone oxidoreductase-1 (NQO1) enzyme induction assay (in vitro); assay type: cell-based, mouse; settings: Mus musculus, Hepa-1c1c7, NQO1 activity upon addition of 400 nM of test compound, about 48 hr, ratio from the base without the compound
Protocol: Experimental Example 2: NAD(P)H: Quinone Oxidoreductase-1 (NQO1) Enzyme Induction Assay (In Vitro)
The NQO1 assay was performed based on a previous report (Methods in Enzymology 2004; 382: 243-258). Hepa1c1c7 cells (mouse hepatocyte cell line, ATCC, cat. no. CRL-2026) were cultured in D-MEM medium containing 10% FBS and 1% penicillin/streptomycin (5% CO2, 37° C.), and seeded into 96-well plates (Corning REF. 353072) at 1×10^4 cells/well. A portion of the wells were prepared with medium only for background measurement without seeding cells. The next day, 400 nM of the test compound (0.004% of the final concentration in DMSO) dissolved in DMSO was added thereto, and the wells were incubated for about 48 hr. A well without adding the test compound was prepared for base activity assay in part.
Cell lysate (solution containing 0.8% digitonin, 2 mM EDTA), reaction solution (solution containing 25 mM Tris-HCl, 0.07% albumin, 0.01% Tween-20, 2 U/mL glucose-6-phosphate dehydrogenase, 5 μM flavin adenine dinucleotide, 1 μM glucose-6-phosphate, 30 μM nicotinamide adenine dinucleotide phosphate, 0.03% 3-(4,5-dimethyl-2-thiazolyl)-2,5-diphenyltetrazolium bromide (MTT), and 50 μM menadione), stop solution (solution containing 0.3 mM dicoumarol and 5 mM potassium dihydrogen phosphate, pH 7.4) were prepared. After the medium was removed, 50 μL of the cell lysate was added and incubated at 37° C. for 10 minutes, followed by shaking at room temperature for 10 minutes. 200 μL of reaction solution was added thereto, and allowed to stand for 5 minutes at room temperature. 50 μL of the stop solution was added thereto, and absorbance was measured at 610 nm on a SpectraMax PLUS384 (Molecular devices) or POWERSCAN HT (DS Pharma Biomedical). The test results were analyzed in Excel, and the NQO1 activity upon addition of 400 nM of test compound was calculated as a ratio from the base without the compound.
The results of each test compound in this test are shown in the following Table 2 (A: 5<NQO1 activity ratio, B: 3<NQO1 activity ratio 5, C: 1.5<NQO1 activity ratio 3).

GST-fused human Keap1 (amino acid residues: 325-642) protein, sequence (Q14145 325-624 limits assumed): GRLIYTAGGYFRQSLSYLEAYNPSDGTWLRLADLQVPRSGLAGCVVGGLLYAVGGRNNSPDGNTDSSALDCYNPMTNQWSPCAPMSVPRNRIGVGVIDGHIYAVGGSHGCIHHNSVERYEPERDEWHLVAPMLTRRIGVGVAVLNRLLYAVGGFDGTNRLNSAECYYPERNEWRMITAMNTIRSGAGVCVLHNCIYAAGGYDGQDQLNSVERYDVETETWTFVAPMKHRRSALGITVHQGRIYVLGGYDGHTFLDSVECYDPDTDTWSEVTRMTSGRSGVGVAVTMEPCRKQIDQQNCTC

SMILES: CC[C@@H]1CN(Cc2cc([C@@H](CC(=O)O)c3cnc4c(nnn4C)c3C)cc3ccsc23)Cc2nc(O)ccc2O1 [Example 23, (3R)-3-(3,7-Dimethyl-3H-[1,2,3]triazolo[4,5-b]pyridin-6-yl)-3-(7-{[(2R)-2-ethyl-7-hydroxy-2,3-dihydropyrido[2,3-f][1,4]oxazepin-4(5H)-yl]methyl}-1-benzothiophen-5-yl)propanoic acid]
IC50 [1]: 30 to 300 nM
fold induction at 0.4 µM [2]: 3 to 5

SMILES: CC[C@@H]1CN(Cc2cc([C@H](CC(=O)O)c3cnc4c(nnn4C)c3C)cc3ccsc23)Cc2nc(O)ccc2O1 [Example 24, (3S)-3-(3,7-Dimethyl-3H-[1,2,3]triazolo[4,5-b]pyridin-6-yl)-3-(7-{[(2R)-2-ethyl-7-hydroxy-2,3-dihydropyrido[2,3-f][1,4]oxazepin-4(5H)-yl]methyl}-1-benzothiophen-5-yl)propanoic acid]
IC50 [1]: 10 to 30 nM
fold induction at 0.4 µM [2]: 3 to 5

SMILES: CC[C@@H]1CN(Cc2cc([C@@H](CC(=O)O)c3ccc4c(nnn4CCN(C)C)c3C)cc3ccsc23)Cc2nc(O)ccc2O1 [Example 25, (3R)-3-{1-[2-(Dimethylamino)ethyl]-4-methyl-1H-benzotriazol-5-yl}-3-(7-{[(2R)-2-ethyl-7-hydroxy-2,3-dihydropyrido[2,3-f][1,4]oxazepin-4(5H)-yl]methyl}-1-benzothiophen-5-yl)propanoic acid]
IC50 [1]: 10 to 30 nM
fold induction at 0.4 µM [2]: > 5

SMILES: CC[C@@H]1CN(Cc2cc([C@H](CC(=O)O)c3ccc4c(nnn4CCN(C)C)c3C)cc3ccsc23)Cc2nc(O)ccc2O1 [Example 26, (3S)-3-{1-[2-(Dimethylamino)ethyl]-4-methyl-1H-benzotriazol-5-yl}-3-(7-{[(2R)-2-ethyl-7-hydroxy-2,3-dihydropyrido[2,3-f][1,4]oxazepin-4(5H)-yl]methyl}-1-benzothiophen-5-yl)propanoic acid]
IC50 [1]: 10 to 30 nM
fold induction at 0.4 µM [2]: 3 to 5

SMILES: CC[C@@H]1CN(Cc2cc([C@@H](CC(=O)O)c3cc(C(F)(F)F)c4c(nnn4C)c3C)cc3ccsc23)Cc2nc(O)ccc2O1 [Example 29, (3R)-3-[1,4-Dimethyl-7-(trifluoromethyl)-1H-benzotriazol-5-yl]-3-(7-{[(2R)-2-ethyl-7-hydroxy-2,3-dihydropyrido[2,3-f][1,4]oxazepin-4(5H)-yl]methyl}-1-benzothiophen-5-yl)propanoic acid]
IC50 [1]: 10 to 30 nM
fold induction at 0.4 µM [2]: > 5

SMILES: CC[C@@H]1CN(Cc2cc([C@H](CC(=O)O)c3cc(C(F)(F)F)c4c(nnn4C)c3C)cc3ccsc23)Cc2nc(O)ccc2O1 [Example 30, (3S)-3-[1,4-Dimethyl-7-(trifluoromethyl)-1H-benzotriazol-5-yl]-3-(7-{[(2R)-2-ethyl-7-hydroxy-2,3-dihydropyrido[2,3-f][1,4]oxazepin-4(5H)-yl]methyl}-1-benzothiophen-5-yl)propanoic acid]
IC50 [1]: 10 to 30 nM
fold induction at 0.4 µM [2]: > 5

SMILES: CC[C@@H]1CN(Cc2cc([C@@H](CC(=O)O)c3cc(C4CC4)c4c(nnn4C)c3C)cc3ccsc23)Cc2nc(O)ccc2O1 [Example 35, (3R)-3-(7-Cyclopropyl-1,4-dimethyl-1H-benzotriazol-5-yl)-3-(7-{[(2R)-2-ethyl-7-hydroxy-2,3-dihydropyrido[2,3-f][1,4]oxazepin-4(5H)-yl]methyl}-1-benzothiophen-5-yl)propanoic acid]
IC50 [1]: 10 to 30 nM
fold induction at 0.4 µM [2]: > 5

SMILES: CC[C@@H]1CN(Cc2cc([C@H](CC(=O)O)c3cc(C4CC4)c4c(nnn4C)c3C)cc3ccsc23)Cc2nc(O)ccc2O1 [Example 36, (3S)-3-(7-Cyclopropyl-1,4-dimethyl-1H-benzotriazol-5-yl)-3-(7-{[(2R)-2-ethyl-7-hydroxy-2,3-dihydropyrido[2,3-f][1,4]oxazepin-4(5H)-yl]methyl}-1-benzothiophen-5-yl)propanoic acid]
IC50 [1]: 10 to 30 nM
fold induction at 0.4 µM [2]: > 5

SMILES: Cc1c([C@H](CC(=O)O)c2cc(CN3Cc4nc(O)ccc4O[C@H](C(F)(F)F)C3)c3sccc3c2)ccc2c1nnn2C [Example 37, (3R)-3-(1,4-Dimethyl-1H-benzotriazol-5-yl)-3-(7-{[(2S)-7-hydroxy-2-(trifluoromethyl)-2,3-dihydropyrido[2,3-f][1,4]oxazepin-4(5H)-yl]methyl}-1-benzothiophen-5-yl)propanoic acid]
IC50 [1]: 10 to 30 nM
fold induction at 0.4 µM [2]: > 5

SMILES: Cc1c([C@@H](CC(=O)O)c2cc(CN3Cc4nc(O)ccc4O[C@H](C(F)(F)F)C3)c3sccc3c2)ccc2c1nnn2C [Example 38, (3S)-3-(1,4-Dimethyl-1H-benzotriazol-5-yl)-3-(7-{[(2S)-7-hydroxy-2-(trifluoromethyl)-2,3-dihydropyrido[2,3-f][1,4]oxazepin-4(5H)-yl]methyl}-1-benzothiophen-5-yl)propanoic acid]
IC50 [1]: ≤ 10 nM
fold induction at 0.4 µM [2]: > 5

SMILES: Cc1c([C@H](CC(=O)O)c2cc(CN3Cc4nc(O)ccc4O[C@@H](C(F)(F)F)C3)c3sccc3c2)ccc2c1nnn2C [Example 39, (3R)-3-(1,4-Dimethyl-1H-benzotriazol-5-yl)-3-(7-{[(2R)-7-hydroxy-2-(trifluoromethyl)-2,3-dihydropyrido[2,3-f][1,4]oxazepin-4(5H)-yl]methyl}-1-benzothiophen-5-yl)propanoic acid]
IC50 [1]: 300 to 3000 nM
fold induction at 0.4 µM [2]: 1.5 to 3

Second part, led by results:

IC50 [1]: ≤ 10 nM
SMILES: CC[C@@H]1CN(Cc2cc([C@H](CC(=O)O)c3cc(OC)c4c(nnn4C)c3C)cc3ccsc23)Cc2nc(O)ccc2O1 [Example 22, (3S)-3-(7-{[(2R)-2-Ethyl-7-hydroxy-2,3-dihydropyrido[2,3-f][1,4]oxazepin-4(5H)-yl]methyl}-1-benzothiophen-5-yl)-3-(7-methoxy-1,4-dimethyl-1H-benzotriazol-5-yl)propanoic acid]
fold induction at 0.4 µM [2]: 3 to 5

IC50 [1]: ≤ 10 nM
SMILES: CC[C@@H]1CN(Cc2cc([C@@H](CC(=O)O)c3cc(Cl)c4c(nnn4C)c3C)cc3ccsc23)Cc2nc(O)ccc2O1 [Example 31, (3R)-3-(7-Chloro-1,4-dimethyl-1H-benzotriazol-5-yl)-3-(7-{[(2R)-2-ethyl-7-hydroxy-2,3-dihydropyrido[2,3-f][1,4]oxazepin-4(5H)-yl]methyl}-1-benzothiophen-5-yl)propanoic acid]
fold induction at 0.4 µM [2]: > 5

IC50 [1]: 10 to 30 nM
SMILES: CC[C@@H]1CN(Cc2cc([C@H](CC(=O)O)c3cc(Cl)c4c(nnn4C)c3C)cc3ccsc23)Cc2nc(O)ccc2O1 [Example 32, (3S)-3-(7-Chloro-1,4-dimethyl-1H-benzotriazol-5-yl)-3-(7-{[(2R)-2-ethyl-7-hydroxy-2,3-dihydropyrido[2,3-f][1,4]oxazepin-4(5H)-yl]methyl}-1-benzothiophen-5-yl)propanoic acid]
fold induction at 0.4 µM [2]: > 5

IC50 [1]: 10 to 30 nM
SMILES: CC[C@@H]1CN(Cc2cc([C@@H](CC(=O)O)c3cc(C#N)c4c(nnn4C)c3C)cc3ccsc23)Cc2nc(O)ccc2O1 [Example 33, (3R)-3-(7-Cyano-1,4-dimethyl-1H-benzotriazol-5-yl)-3-(7-{[(2R)-2-ethyl-7-hydroxy-2,3-dihydropyrido[2,3-f][1,4]oxazepin-4(5H)-yl]methyl}-1-benzothiophen-5-yl)propanoic acid]
fold induction at 0.4 µM [2]: > 5

IC50 [1]: 10 to 30 nM
SMILES: CC[C@@H]1CN(Cc2cc([C@H](CC(=O)O)c3cc(C#N)c4c(nnn4C)c3C)cc3ccsc23)Cc2nc(O)ccc2O1 [Example 34, (3S)-3-(7-Cyano-1,4-dimethyl-1H-benzotriazol-5-yl)-3-(7-{[(2R)-2-ethyl-7-hydroxy-2,3-dihydropyrido[2,3-f][1,4]oxazepin-4(5H)-yl]methyl}-1-benzothiophen-5-yl)propanoic acid]
fold induction at 0.4 µM [2]: 3 to 5
